Data set [1] concerns histamine-induced contraction of isolated trachea. The data set can be described thus: Anticonstrictive action against histamine-induced contraction of isolated tracheal ring chains. Particulars: Cavia porcellus; guinea pig tracheal chain, histamine dihydrochloride 3×10^−7 g/ml, n=6. More on the design: species or system albino guinea pigs. From the text: (§1) The inhibitory action of the compounds of formula I on the proinflammatory early-phase mediators histamine, PAF and leukotriene D4 (LTD4) was investigated on isolated segments of the respiratory tract organs of albino guinea pigs, the inhibition of the contractions which can be caused by these mediators being used as measurement parameters.
(§2) To carry out the experiment, freshly prepared organs of male animals were used in each case. The trachea was divided into its rings, of which 5 tracheal rings in each case were linked with silk thread to give a chain, suspended under a tension of 0.5 g in an organ bath containing Tyrode solution at 37° C. through which was bubbled 95% O2/5% CO2, and contracted by addition of histamine dihydrochloride (bath concentration: 3×10^−7 g/ml) in the absence (control experiment) or in the presence of the test substances.
(§3) Each experiment comprised the parallel investigation of 6 organ preparations (n=6).
(§4) The assessment of the action of the preparation was carried out with the aid of the IC50 values, which represent that concentration in μg/ml at which the organ contraction produced in the control experiment was reduced by half.

Data set [2] deals with PAF-induced contraction of isolated lung strips. The data set can be described thus: Anticonstrictive action against PAF-induced contraction of isolated lung strips. The arrangement: species or system albino guinea pigs. The following applies: Cavia porcellus; guinea pig lung strips, PAF 10^−9 g/ml, n=6; read-out: Anticonstrictive action (IC50) PAT lung.
Source text: as §1, §2
(§5) The lungs were cut longitudinally into 2 to 3 strips, using which the process as described above was carried out. The tension, however, was 1 g and the contraction was induced by PAF or LTD4 at a bath concentration of 10^−9 or 10^−8 g/mi.
as §3, §4

Data set [3] has as its system LTD4-induced contraction of isolated lung strips. The data set can be described thus: Anticonstrictive action against LTD4-induced contraction of isolated lung strips. The arrangement: species or system albino guinea pigs. Particulars: Cavia porcellus; guinea pig lung strips, LTD4 10^−8 g/ml, n=6.
Source text: as §1, §2, §5, §3, §4

The subject of data set [4] is ovalbumin-induced asthma attack. Briefly: Inhibition of the antigen-induced early-phase reaction (ovalbumin-induced bronchospasm, Konzett-Rössler) in the presensitized guinea pig. The following applies: Cavia porcellus, iv, protected = asthma reaction reduced by at least 40% relative to control; for responders at 10 mg/kg: 10 mg/kg i.v. 15 minutes before antigen; for responders at 25 mg/kg: 25 mg/kg i.v. 15 minutes before antigen. The data set is classed as in vivo, albino guinea pigs. On the procedure:
Albino guinea pigs of both sexes having a body weight of 180 to 220 g were sensitized on two successive days by subcutaneous administration of 1 mg of ovalbumin (0.1% strength dissolved in physiological saline solution) in each case. 20 days later, the experiment was carried out according to the method of Konzett and […] (Arch. exp. Path. und Pharmak. (1940) 195: 75). For this purpose, the animals were anesthetized with pentobarbital, artificially ventilated, treated with alcuronium chloride to exclude spontaneous respiration and divided into groups of 6 animals in each case. By means of intravenous administration of ovalbumin as an antigen in a dose of 1 mg/kg, a long-lasting asthma attack was induced as a result of an acute bronchospasm induced by mediators in the course of the asthmatic early reaction, the intensity of which was quantified by means of the contraction height in the thoracogram. The test preparations were likewise administered intravenously 15 minutes before antigen provocation. Instead of this, the animals of the control group received pure 0.9% strength saline solution. To assess the action of the preparation, the number of animals of the respective collective in which the asthma reaction was reduced by at least 40% relative to the control animals was determined.

Data set [5] concerns human eosinophilic granulocytes. The data set can be described thus: Inhibition of eosinophil activation by late-phase mediators, lucigenin-dependent chemiluminescence. The data set is classed as cell-based. The following applies: 0.5 h, test substance 100 μM, human eosinophils, CL over 30 minutes. From the text: The inhibitory action of the xanthines of formula I on the activation ability of human eosinophilic granulocytes by means of the late-phase mediators IL-5, GM-CSF, C5a and PAF was investigated with the aid of the lucigenin-dependent chemiluminescence (CL) reaction.
For this purpose, purified eosinophils were obtained from venous human blood according to known processes (Arch. Dermatol. Res. (1987) 279: 470-477 and J. Invest. Dermatol. (1986) 86: 523-528), pretreated with the test substances at the concentration 100 μM or with pure water (positive control (A)) at 37° C. for 10 minutes and then activated with IL-5 (10^2 U/ml), GM-CSF (10^3 U/ml), C5a (10^−7 M) or PAF (10^−6 M) or treated with water for the determination of the basal activity (B). The CL reaction was monitored over the course of 30 minutes measuring at 37° C. The residual activity of the cells pretreated with the test substances was calculated according to the following formula in percent of that of the positive control: [formula]
CLX describes the activity after stimulation of the cells pretreated with the xanthines,
CLA describes the activity after stimulation of the cells pretreated with water and
CLB describes the basal activity of unstimulated cells pretreated with water.

The test system of data set [6] is eosinophilic granulocytes infiltrating the peritoneal space. The data set can be described thus: Antigen-induced late-phase reaction: infiltration of eosinophilic granulocytes into the peritoneal space (in vivo). The arrangement: species or system guinea pigs. Particulars: 80 mg/kg daily oral for 15 weeks, human serum antigen i.p. weekly, peritoneal lavage 48 hours later; control animals 42.2 5.8%; p<0.01. Here is the method: (§6) In a chronic long-term experiment on guinea pigs provoked with human serum antigen, the inhibitory action of the compounds of the formula I on the pathologically raised chemotactic infiltration of eosinophilic granulocytes into the peritoneal space (in vivo) and their functional state (ex vivo) was investigated. The animals of the preparation group (n=6) were treated with the test substance at a daily oral dose of 80 mg/kg for 15 weeks, while the animals of the control group (n=6) received the vehicle (carboxymethylcellulose). After the third week of treatment, all 12 animals were provoked by weekly intraperitoneal administration of 1 ml of human serum antigen and 48 hours later in each case subjected to a peritoneal lavage with 50 ml of 5% strength glucose solution in which the number of infiltrated eosinophils and, after their isolation on discontinuous Percoll density gradients (purity >95%; V ability >98%), the reactivity to PAF and C5a were determined in a comparison between the two animal collectives by flow cytometry with the aid of actin polymerization and by means of the Boyden chamber technique.

In data set [7] the test system is eosinophilic granulocytes. The data set can be described thus: Antigen-induced late-phase reaction: ex vivo chemotactic migration of eosinophils (Boyden chamber technique). The following applies: eosinophils of animals treated with 80 mg/kg daily oral, compared with control animals, p<0.05. The data set is classed as in vivo, guinea pigs. Here is the method: as §6

In data set [8] the test system is eosinophilic granulocytes. The data set can be described thus: Antigen-induced late-phase reaction: ex vivo actin polymerization of eosinophils (flow cytometry). The data set is classed as in vivo, guinea pigs. The following applies: PAF 10 nM, eosinophils of animals treated with 80 mg/kg daily oral. Here is the method:
as §6

Setting [9] is: read-out: Protected animals after i.v. administration, % proportion.
Setting [10] is: read-out: Protected animals after i.v. administration, number (converted).

Each structure is given as a SMILES string. Converted amounts (≈) assume the structure as drawn. Like-named read-outs stand apart in the source and are kept apart here.

These results are taken from US20020010333A1, “Use of xanthine derivatives for reducing the pathological hyperreactivity of eosinophilic granulocytes, novel xanthine compounds and process for their preparation” (Hoechst Aktiengesellschaft, priority 1994, published 2002).

Molecule `Cn1c(=O)n(CCCCC(C)(C)O)c(=O)c2[nH]cnc21` [Example 7, 1-(5-Hydroxy-5-methylhexyl)-3-methylxanthine] gave a melting point of 192 to 193 °C. In addition, in [1], the IC50 lay in the range of 10 to 30 µg/mL (≈ 35.7 to 107 µM). Further, in data set [2], the IC50 was 10 to 30 µg/mL (≈ 35.7 to 107 µM). Also, the IC50 in data set [3] lay within 10 to 30 µg/mL (≈ 35.7 to 107 µM). Further, in data set [4] (setting [9]), the responders at 10 mg/kg is 33% and the responders at 25 mg/kg stood at 80%. Moreover, in data set [4] (setting [10]), the responders at 10 mg/kg is 33.3% and the responders at 25 mg/kg was 80%. Besides, the activity at 100 µM in [5] (C5a 10^−7 M, read-out: Residual activity in % of the positive control A after stimulation with C5a) was determined as 19%. Further, the activity at 100 µM in data set [5] (GM-CSF 10^3 U/ml, read-out: Residual activity in % of the positive control A after stimulation with GM-CSF) turned out to be 63%. For the same molecule, the activity at 100 µM in data set [5] (IL-5 10^2 U/ml, read-out: Residual activity in % of the positive control A after stimulation with IL-5) was 42%. Besides, the activity at 100 µM in [5] (PAF 10^−6 M, read-out: Residual activity in % of the positive control A after stimulation with PAF) was 17%. For the same molecule, in data set [6], the “Number of eosinophils which migrated into the peritoneal space” value came out at 34.9%. For the same molecule, in [7], the “Chemotactic migration of eosinophils induced by C5a” value is “significant reduction” and the “Chemotactic migration of eosinophils induced by PAF” value is on record as “significant reduction”. Also, in [8], the “Initial phase (<10s) of actin polymerization induced by PAF” value is reported as “significantly decreased”.

Broadly, the IC50 is the concentration that gives 50% inhibition. One may read the melting point as the temperature, or range, at which the solid turns liquid.
